Test results taken from US20100298370A1, “BENZOTHIAZOLYL THIENOPYRIDINE DERIVATIVES AND USES THEREOF” (priority 2006, published 2010).

Molecular target: T1, VEGF binding to heparin (HS-GAG) (Homo sapiens, UniProt P15692)
T1 construct: purchased Research and Development Systems
T1 sequence (P15692 27-191 isoform P15692-4): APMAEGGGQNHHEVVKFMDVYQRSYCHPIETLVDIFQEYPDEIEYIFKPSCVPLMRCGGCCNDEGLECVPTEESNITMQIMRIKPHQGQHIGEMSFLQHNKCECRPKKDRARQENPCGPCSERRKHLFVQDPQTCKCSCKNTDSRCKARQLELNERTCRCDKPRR
Assay: In vitro VEGF to HS-GAG binding assay (ELISA, heparin-BSA coated plate)
Description: An in vitro assay was used to assess the ability of test compounds of general formulas I and II to inhibit the interaction of VEGF with HS-GAGs. The assay was designed to for determine the concentration required for 50% inhibition (IC-50) for each specific compound. The test compounds were purchased from Life Chemicals Ltd. (Kiev, Ukraine), and the GAG used was heparin (heparin grade I-A; Sigma) conjugated to bovine serum albumin (Sigma) and diluted 1:200 in phosphate-buffered saline (PBS; pH 7.3). The heparin was added to a 96-well polystyrene ELISA plate (NUNC; 0.1 ml per well) and incubated overnight at 4° C. Following the incubation, the plate was washed thoroughly, by immersion, with de-ionized water and then with PBS (pH 7.3) containing Tween 20 (Sigma, 0.05%). The ELISA plate was then blocked with BSA (ICN, 3%, 200 μl per well) for 1 hour at room temperature. Following blocking, the plate was washed with de-ionized water, and then twice with PBS (pH 7.3) containing Tween 20. Recombinant human VEGF (Research and Development Systems) dissolved in PBS supplemented with BSA (0.1%) was added to the ELISA plate. The test compounds were dissolved in DMSO (MERCK), diluted in PBS and added to the wells at concentrations ranging from 0.01 to 200 μM to obtain a final volume 100 μl per well, and incubated for 60 minutes at room temperature with shaking. Following incubation, the plate was washed with de-ionized water and PBS (pH 7.3) containing Tween 20. Anti-human VEGF (1:2000; Research and Development Systems) diluted in PBS supplemented with BSA (1%) was added to the ELISA plate (100 per well) and incubated for 60 minutes at room temperature with shaking. Following incubation, the plate was washed with de-ionized water and then with PBS (pH 7.3) containing Tween 20. Streptavidin-HRP (1:200; Research and Development Systems Cat. No. DY998) diluted in PBS supplemented with BSA (1%) was added to the ELISA plate (100 per well) and incubated for 20 minutes at room temperature with shaking. The plate was then washed with de-ionized water and twice with PBS (pH 7.3) containing Tween 20. The peroxidase substrate chromogen tetramethyl benzidine (TMB; Dako) was added (100 μl per well) to the ELISA plate and incubated at room temperature. After 15 minutes, ELISA Stop Solution (hydrochloric acid 1N, sulfuric acid 3N) was added (100 μl per well) to stop the peroxidase catalyzed colorimetric reaction. The Optical Density (OD) of the samples was measured at 450 nm using an ELISA plate reader (Dynatech MR5000). Data were analyzed with Graphpad Prism software and IC-50 values were determined.
Percent inhibition at 30 μM concentration is shown and for selected compounds IC-50 was established.

inhibition at 30 µM [%]	IC50 [nM]	Structure (SMILES)
41		CCN1CCc2c(sc(NC(=O)c3ccc(OC)cc3)c2-c2nc3ccccc3s2)C1 [Compound 11, N-[3-(2-benzothiazolyl)-4,5,6,7-tetrahydro-6-ethylthieno[2,3-c]pyridin-2-yl]-4-methoxybenzamide]
42		Cc1ccc(S(=O)(=O)CC(=O)Nc2sc3c(c2-c2nc4ccccc4s2)CCN(C)C3)cc1 [Compound 39, N-[3-(2-benzothiazolyl)-4,5,6,7-tetrahydro-6-methylthieno[2,3-c]pyridin-2-yl]-(4-methylphenylsulfonyl)acetamide]
71		CCN1CCc2c(sc(NC(=O)c3ccc(Cl)cc3)c2-c2nc3ccccc3s2)C1 [Compound 10, N-[3-(2-benzothiazolyl)-4,5,6,7-tetrahydro-6-ethylthieno[2,3-c]pyridin-2-yl]-(4-chloro)benzamide]
77	300	CCN1CCc2c(sc(NC(=O)c3cccc(N4C(=O)CCC4=O)c3)c2-c2nc3ccccc3s2)C1 [Compound 17, N-[3-(2-benzothiazolyl)-4,5,6,7-tetrahydro-6-ethylthieno[2,3-c]pyridin-2-yl]-3-(2,5-dioxo-1-pyrrolidinyl)benzamide]
55		CN1CCc2c(sc(NC(=O)c3ccco3)c2-c2nc3ccccc3s2)C1 [Compound 25, N-[3-(2-benzothiazolyl)-4,5,6,7-tetrahydro-6-methylthieno[2,3-c]pyridin-2-yl]-2-furancarboxamide]
37		CCOC(=O)N1CCc2c(sc(NC(=O)c3ccccc3)c2-c2nc3ccccc3s2)C1 [Compound 35, N-[3-(2-benzothiazolyl)-4,5,6,7-tetrahydro-6-ethoxycarbonylthieno[2,3-c]pyridin-2-yl]benzamide]
77	200	CN1CCc2c(sc(NC(=O)c3ccc4ncsc4c3)c2-c2nc3ccccc3s2)C1 [Compound 34, N-[3-(2-benzothiazolyl)-4,5,6,7-tetrahydro-6-methylthieno[2,3-c]pyridin-2-yl]-6-benzothiazolecarboxamide]
35		CCN1CCc2c(sc(NC(=O)c3cc4cc([N+](=O)[O-])ccc4s3)c2-c2nc3ccccc3s2)C1 [Compound 28, N-[3-(2-benzothiazolyl)-4,5,6,7-tetrahydro-6-ethylthieno[2,3-c]pyridin-2-yl]-benzo[b]thiophene-5-nitro-2-carboxamide]
52		O=C(Nc1sc2c(c1-c1nc3ccccc3s1)CCN(Cc1ccccc1)C2)c1ccc(Br)s1 [Compound 24, N-[3-(2-benzothiazolyl)-4,5,6,7-tetrahydro-6-phenylmethylthieno[2,3-c]pyridin-2-yl]-2-(5-bromo)thiophenecarboxamide]
57		O=C(Nc1sc2c(c1-c1nc3ccccc3s1)CCN(Cc1ccccc1)C2)c1cccs1 [Compound 23, N-[3-(2-benzothiazolyl)-4,5,6,7-tetrahydro-6-phenylmethylthieno[2,3-c]pyridin-2-yl]-2-thiophenecarboxamide]
61		CN1CCc2c(sc(NC(=O)c3cccc(C(F)(F)F)c3)c2-c2nc3ccccc3s2)C1 [Compound 16, N-[3-(2-benzothiazolyl)-4,5,6,7-tetrahydro-6-methylthieno[2,3-c]pyridin-2-yl]-3-trifluoromethylbenzamide]
31		CN1CCc2c(sc(NC(=O)c3cc4c(ccc5ccccc54)oc3=O)c2-c2nc3ccccc3s2)C1 [Compound 32, N-[3-(2-benzothiazolyl)-4,5,6,7-tetrahydro-6-methylthieno[2,3-c]pyridin-2-yl]-3-oxo-3H-naphtho[2,1-b]pyran-2-carboxamide]
62		CN1CCc2c(sc(NC(=O)CCSc3ccc(F)cc3)c2-c2nc3ccccc3s2)C1 [Compound 12, N-[3-(2-benzothiazolyl)-4,5,6,7-tetrahydro-6-methylthieno[2,3-c]pyridin-2-yl]-3-[(4-fluorophenyl)thio]propanamide]
36		CC(C)N1CCc2c(sc(NC(=O)C3CCCCC3)c2-c2nc3ccccc3s2)C1 [Compound 26, N-[3-(2-benzothiazolyl)-4,5,6,7-tetrahydro-6-(1-methylethyl)thieno[2,3-c]pyridin-2-yl]-cyclohexylcarboxamide]
70	500	CCN1CCc2c(sc(NC(=O)c3ccccc3)c2-c2nc3ccccc3s2)C1 [Compound 9, N-[3-(2-benzothiazolyl)-4,5,6,7-tetrahydro-6-ethylthieno[2,3-c]pyridin-2-yl]-benzamide]
41		Cc1ccc(CC(=S)Nc2sc3c(c2-c2nc4ccccc4s2)CCN(C)C3)cc1 [Compound 40, N-[3-(2-benzothiazolyl)-4,5,6,7-tetrahydro-6-methylthieno[2,3-c]pyridin-2-yl]-(4-methylphenyl)thioacetamide]
37		CC(C)N1CCc2c(sc(NC(=O)CN3C(=O)CCC3=O)c2-c2nc3ccccc3s2)C1 [Compound 31, N-[3-(2-benzothiazolyl)-4,5,6,7-tetrahydro-6-(methylethyl)thieno[2,3-c]pyridin-2-yl]-(2,5-dioxo-1-pyrrolidine)acetamide]
75	350	CC(=O)N1CCc2c(sc(NC(=O)c3ccc(C#N)cc3)c2-c2nc3ccccc3s2)C1 [Compound 37, N-[3-(2-benzothiazolyl)-4,5,6,7-tetrahydro-6-acetylthieno[2,3-c]pyridin-2-yl]-4-cyanobenzamide]
39		O=C(Nc1sc2c(c1-c1nc3ccccc3s1)CCN(Cc1ccccc1)C2)c1cc(Cl)sc1Cl [Compound 22, N-[3-(2-benzothiazolyl)-4,5,6,7-tetrahydro-6-phenylmethylthieno[2,3-c]pyridin-2-yl]-3-(2,5-dichloro)thiophenecarboxamide]
44		CC(C)N1CCc2c(sc(NC(=O)CCc3ccccc3)c2-c2nc3ccccc3s2)C1 [Compound 18, N-[3-(2-benzothiazolyl)-4,5,6,7-tetrahydro-6-(1-methylethyl)thieno[2,3-c]pyridin-2-yl]-3-benzenepropaneamide]
79	900	CC(C)(C)C(=O)Nc1sc2c(c1-c1nc3ccccc3s1)CCN(Cc1ccccc1)C2 [Compound 21, N-[3-(2-benzothiazolyl)-4,5,6,7-tetrahydro-6-phenylmethyllthieno[2,3-c]pyridin-2-yl]-2,2-dimethylpropaneamide]
31		CC(=O)N1CCc2c(sc(NC(=O)c3cccc(Br)c3)c2-c2nc3ccccc3s2)C1 [Compound 36, N-[3-(2-benzothiazolyl)-4,5,6,7-tetrahydro-6-acetylthieno[2,3-c]pyridin-2-yl]-3-bromobenzamide]
55		O=C(COc1ccc(Cl)cc1)Nc1sc2c(c1-c1nc3ccccc3s1)CCN(Cc1ccccc1)C2 [Compound 27, N-[3-(2-benzothiazolyl)-4,5,6,7-3-tetrahydro-6-phenylmethylthieno[2,3-c]pyridin-2-yl]-2-(4-chlorophenoxy)acetamide]
49		CC(C)Oc1ccc(C(=O)Nc2sc3c(c2-c2nc4ccccc4s2)CCN(C)C3)cc1 [Compound 19, N-[3-(2-benzothiazolyl)-4,5,6,7-tetrahydro-6-methylthieno[2,3-c]pyridin-2-yl]-4-(1-methylethoxy)benzamide]
82	400	CC(=O)c1ccc(C(=O)Nc2sc3c(c2-c2nc4ccccc4s2)CCN(Cc2ccccc2)C3)cc1 [Compound 8, N-[3-(2-benzothiazolyl)-4,5,6,7-tetrahydro-6-phenylmethylthieno[2,3-c]pyridin-2-yl]-4-acetylbenzamide]
64		COc1ccc(C(=O)Nc2sc3c(c2-c2nc4ccccc4s2)CCN(Cc2ccccc2)C3)c(OC)c1 [Compound 13, N-[3-(2-benzothiazolyl)-4,5,6,7-tetrahydro-6-phenylmethylthieno[2,3-c]pyridin-2-yl]-(2,4-dimethoxy)benzamide]
43		COc1cc2ccccc2cc1C(=O)Nc1sc2c(c1-c1nc3ccccc3s1)CCN(C)C2 [Compound 15, N-[3-(2-benzothiazolyl)-4,5,6,7-tetrahydro-6-methylthieno[2,3-c]pyridin-2-yl]-3-methoxy-2-naphthalenecarboxamide]
